# Assays:
# A2780 [1] = assay: Antitumor activity against human A2780 cells xenografted in SCID mouse assessed as reduction in tumor volume dosed orally twice daily for 5 days relative to untreated control; format: functional, organism-based
# HCT-116 = assay: Induction of mitotic accumulation in human HCT116 cells Hoechst 33342 staining based by fluorescence microscopy; format: functional
# Mus musculus [2] = assay: Toxicity in human A2780 cells xenografted SCID mouse assessed as mortality at 0.625 mg/kg, po bid for 5 days; format: organism-based; set-up: dose 0.625 mg/kg, route oral; conditions: in vivo, 120 h
# Mus musculus [3] = assay: Toxicity in human A2780 cells xenografted SCID mouse assessed as induction of body weight loss at 5 mg/kg, po bid for 5 days; format: organism-based; set-up: dose 5 mg/kg, route oral; conditions: in vivo, 120 h
# Mus musculus [4] = assay: Toxicity in human A2780 cells xenografted SCID mouse assessed as induction of body weight loss at 0.625 mg/kg, po bid for 5 days; format: organism-based; set-up: dose 0.625 mg/kg, route oral; conditions: in vivo, 120 h
# A2780 [5] = assay: Antitumor activity against human A2780 cells xenografted in SCID mouse assessed as tumor volume ratio at 5 mg/kg, po bid for 5 days relative to untreated control; format: functional
# [6] = Growth inhibition of human HCT116 cells; format: functional; conditions: HCT-116
# [7] = molecular target: T1, Kinesin-like protein KIF11 (Homo sapiens, UniProt P52732); assay: Inhibition of Eg5 (unknown origin)
# T1 sequence (P52732 whole entry): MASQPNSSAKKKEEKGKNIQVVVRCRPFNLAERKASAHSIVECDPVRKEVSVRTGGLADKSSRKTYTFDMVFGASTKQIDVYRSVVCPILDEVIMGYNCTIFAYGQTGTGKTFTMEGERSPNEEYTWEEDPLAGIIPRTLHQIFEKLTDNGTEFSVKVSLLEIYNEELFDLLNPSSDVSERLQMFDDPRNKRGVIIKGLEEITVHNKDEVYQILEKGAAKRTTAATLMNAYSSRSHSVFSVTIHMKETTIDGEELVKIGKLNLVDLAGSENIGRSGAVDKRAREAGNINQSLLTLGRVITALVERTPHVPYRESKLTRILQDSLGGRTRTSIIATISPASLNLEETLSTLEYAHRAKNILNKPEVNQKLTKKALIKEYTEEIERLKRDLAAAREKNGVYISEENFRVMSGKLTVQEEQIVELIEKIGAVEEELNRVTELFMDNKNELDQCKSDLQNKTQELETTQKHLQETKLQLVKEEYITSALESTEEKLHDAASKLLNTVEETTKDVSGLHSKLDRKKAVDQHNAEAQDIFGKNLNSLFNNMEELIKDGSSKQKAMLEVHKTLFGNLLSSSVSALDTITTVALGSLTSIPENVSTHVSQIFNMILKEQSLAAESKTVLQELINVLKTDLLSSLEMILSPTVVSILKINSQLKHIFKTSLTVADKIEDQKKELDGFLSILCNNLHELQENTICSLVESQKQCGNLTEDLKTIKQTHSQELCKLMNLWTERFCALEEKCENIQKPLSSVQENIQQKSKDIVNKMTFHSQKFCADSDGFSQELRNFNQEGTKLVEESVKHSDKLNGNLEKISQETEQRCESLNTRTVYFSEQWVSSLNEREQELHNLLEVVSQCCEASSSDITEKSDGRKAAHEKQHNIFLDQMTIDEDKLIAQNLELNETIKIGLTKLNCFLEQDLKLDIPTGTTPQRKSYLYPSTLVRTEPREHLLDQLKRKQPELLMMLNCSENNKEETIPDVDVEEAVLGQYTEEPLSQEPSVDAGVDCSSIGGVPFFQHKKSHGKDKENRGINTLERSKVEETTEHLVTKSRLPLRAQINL
# Mus musculus [8] = assay: Toxicity in human A2780 cells xenografted SCID mouse assessed as mortality at 5 mg/kg, po bid for 5 days; format: organism-based; set-up: dose 5 mg/kg, route oral; conditions: in vivo, 120 h
# A2780 [9] = assay: Antitumor activity against human A2780 cells xenografted in SCID mouse assessed as tumor volume ratio at 0.625 mg/kg, po bid for 5 days relative to untreated control; format: functional
# [10] = Intrinsic clearance in mouse liver microsomes; format: ADME; conditions: read-out: CLH (converted)
# Mus musculus [11] = assay: Toxicity in human A2780 cells xenografted SCID mouse assessed as mortality at 10 mg/kg, po bid for 5 days; format: organism-based; set-up: dose 10 mg/kg, route oral; conditions: in vivo, 120 h
# Mus musculus [12] = assay: Toxicity in human A2780 cells xenografted SCID mouse assessed as mortality at 2.5 mg/kg, po bid for 5 days; format: organism-based; set-up: dose 2.5 mg/kg, route oral; conditions: in vivo, 120 h
# [13] = Oral absorption in mouse; format: ADME, organism-based; conditions: in vivo
# A2780 [14] = assay: Antitumor activity against human A2780 cells xenografted in SCID mouse assessed as tumor volume ratio at 10 mg/kg, po bid for 5 days relative to untreated control; format: functional
# A2780 [15] = assay: Antitumor activity against human A2780 cells xenografted in SCID mouse assessed as tumor volume ratio at 2.5 mg/kg, po bid for 5 days relative to untreated control; format: functional
# [16] = Therapeutic index, ratio of MTD in human A2780 cells xenografted SCID mouse to ED50 for human A2780 cells xenografted in SCID mouse; format: cell-based; conditions: in vivo, read-out: TI
# Mus musculus [17] = assay: Toxicity in human A2780 cells xenografted SCID mouse assessed as induction of body weight loss at 2.5 mg/kg, po bid for 5 days; format: organism-based; set-up: dose 2.5 mg/kg, route oral; conditions: in vivo, 120 h
# Mus musculus [18] = assay: Toxicity in human A2780 cells xenografted SCID mouse assessed as induction of body weight loss at 10 mg/kg, po bid for 5 days; format: organism-based; set-up: dose 10 mg/kg, route oral; conditions: in vivo, 120 h
# Mus musculus [19] = assay: Toxicity in human A2780 cells xenografted SCID mouse assessed as induction of body weight loss at 100 mg/kg, po bid for 5 days; format: organism-based; set-up: dose 100 mg/kg, route oral; conditions: in vivo, 120 h
# A2780 [20] = assay: Antitumor activity against human A2780 cells xenografted in SCID mouse assessed as tumor volume ratio at 100 mg/kg, po bid for 5 days relative to untreated control; format: functional
# Mus musculus [21] = assay: Toxicity in human A2780 cells xenografted SCID mouse assessed as mortality at 100 mg/kg, po bid for 5 days; format: organism-based; set-up: dose 100 mg/kg, route oral; conditions: in vivo, 120 h
Structure (SMILES),MI20 (HCT-116),GI50 [6],IC50 [7],further results
"CC(C)C(=O)N1N=C(NC(=O)C(C)(C)C)SC1(CCNS(C)(=O)=O)c1ccccc1 (single isomer, unassigned; (-)) [listing 1 of 2 here]",,,,TGI (A2780 [1]): Dose-dependent effect
"CCC(=O)N1N=C(NC(=O)C(C)(C)C)SC1(CCNS(C)(=O)=O)c1ccccc1 (single isomer, unassigned; (-)) [listing 1 of 2 here]",55 nmol/L,560 nM,64 nM,Activity (Mus musculus [2]): Non-toxic; Activity (Mus musculus [3]): Non-toxic; Activity (Mus musculus [4]): Non-toxic; T/C (A2780 [5]): 0.08; Activity (Mus musculus [8]): Non-toxic; T/C (A2780 [9]): 0.5
CC(C)(C)C(=O)NC1=NN(C(=O)C(C)(C)C)C(CNS(C)(=O)=O)(c2ccccc2)S1 (stereo not given),16 nmol/L,17 nM,44 nM,
CC(=O)N1N=C(N)SC1(C)c1ccccc1 (stereo not given),>10000 nmol/L,,,
CC(C)C(=O)N1N=C(NC(=O)C(C)(C)C)SC1(CCNS(C)(=O)=O)c1ccccc1 (racemic),114 nmol/L,,110 nM,CLint scaled [10]: 14.8 mL/min/kg
"CC(C)C(=O)N1N=C(NC(=O)C(C)(C)C)SC1(CCNS(C)(=O)=O)c1ccccc1 (single isomer, unassigned; (-)) [listing 2 of 2 here]",40 nmol/L,63 nM,48 nM,Activity (Mus musculus [11]): Non-toxic; Activity (Mus musculus [12]): Non-toxic; Fa [13]: 62%; T/C (A2780 [14]): 0.27; T/C (A2780 [15]): 0.5; selectivity ratio [16]: 8; Activity (Mus musculus [17]): Non-toxic; Activity (Mus musculus [18]): Non-toxic
CC(C)(C)C(=O)NC1=NN(C(=O)C(C)(C)C)C(CS(C)(=O)=O)(c2ccccc2)S1 (stereo not given),>10000 nmol/L,,,
COCC1(c2ccccc2)SC(NC(=O)C(C)(C)C)=NN1C(=O)C(C)(C)C (stereo not given),430 nmol/L,560 nM,,
CC(C)CC(=O)NC1=NN(C(=O)CC(C)C)C(C)(c2ccccc2)S1 (stereo not given),170 nmol/L,190 nM,520 nM,
CC(C)(C)C(=O)NC1=NN(C(=O)C(C)(C)C)C(CCNS(C)(=O)=O)(c2ccccc2)S1 (stereo not given),71 nmol/L,63 nM,120 nM,CLint scaled [10]: 32.5 mL/min/kg
CC1(c2ccccc2)SC(NC(=O)c2ccccc2)=NN1C(=O)c1ccccc1 (stereo not given),>10000 nmol/L,,,
CC(C)C(=O)NC1=NN(C(=O)C(C)C)C(C)(c2ccccc2)S1 (stereo not given),460 nmol/L,550 nM,,
CC(=O)NC1=NN(C(C)=O)C(C)(c2ccccc2)S1 (stereo not given),1100 nmol/L,1000 nM,,Activity (Mus musculus [19]): Non-toxic; T/C (A2780 [20]): 0.18; Activity (Mus musculus [21]): Non-toxic
CCC(=O)NC1=NN(C(=O)CC)C(C)(c2ccccc2)S1 (stereo not given),1700 nmol/L,,,
"CCC(=O)N1N=C(NC(=O)C(C)(C)C)SC1(CCNS(C)(=O)=O)c1ccccc1 (single isomer, unassigned; (-)) [listing 2 of 2 here]",,,,TGI (A2780 [1]): Dose-dependent effect
CCC(=O)N1N=C(NC(=O)C(C)(C)C)SC1(CCNS(C)(=O)=O)c1ccccc1 (racemic),114 nmol/L,,111 nM,CLint scaled [10]: 14.8 mL/min/kg
CC(=O)NCC1(c2ccccc2)SC(NC(=O)C(C)(C)C)=NN1C(=O)C(C)(C)C (stereo not given),2200 nmol/L,,,
CC(C)(C)C(=O)NC1=NN(C(=O)C(C)(C)C)C(CC#N)(c2ccccc2)S1 (stereo not given),>10000 nmol/L,,,
"CC(C)C(=O)N1N=C(NC(=O)C(C)(C)C)SC1(CCNS(C)(=O)=O)c1ccccc1 (single isomer, unassigned; (+))",>10000 nmol/L,,,
CCC(=O)N1N=C(NC(=O)C(C)(C)C)SC1(CCNS(C)(=O)=O)c1ccccc1 (stereo in doubt; (+)-12a),>10000 nmol/L,,,

# Reference: ChEMBL document CHEMBL3351519, “Synthetic studies on mitotic kinesin Eg5 inhibitors: synthesis and structure-activity relationships of novel 2,4,5-substituted-1,3,4-thiadiazoline derivatives” (Bioorg Med Chem Lett, 2014)
